From PubChem BioAssay (NCI)
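GI50 marks 50% less growth. TGI is the concentration that stops growth completely.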

How the values were obtained:
Test in all cases: NCI tumour cell line growth inhibition, 384-well format
EKVX NSCLC = test system: EKVX NSCLC
HCT-15 colon = test system: HCT-15 colon
HS 578T breast = test system: HS 578T breast
MDA-MB-231 breast = test system: MDA-MB-231 breast
MDA-MB-468 breast = test system: MDA-MB-468 breast
NCI-H522 lung = test system: NCI-H522 lung
OVCAR-3 ovarian = test system: OVCAR-3 ovarian
SF-268 CNS = test system: SF-268 CNS
SF-539 CNS = test system: SF-539 CNS
SK-MEL-2 melanoma = test system: SK-MEL-2 melanoma
SK-MEL-28 melanoma = test system: SK-MEL-28 melanoma
SK-MEL-5 melanoma = test system: SK-MEL-5 melanoma
SK-OV-3 ovarian = test system: SK-OV-3 ovarian

C[C@@H]1Cc2c(ccc3[nH]ncc23)[C@@H](c2ccc(NC3CN(CCCF)C3)cn2)N1CC(F)(F)F
GI50 (EKVX NSCLC): 13.8 µM | TGI (EKVX NSCLC): 27.7 µM | GI50 (HCT-15 colon): 16.4 µM | TGI (HCT-15 colon): 30.3 µM | GI50 (HS 578T breast): 13 µM | TGI (HS 578T breast): 25.7 µM | GI50 (MDA-MB-231 breast): 14.2 µM | TGI (MDA-MB-231 breast): 28.7 µM | GI50 (MDA-MB-468 breast): 7.75 µM | TGI (MDA-MB-468 breast): 20.1 µM | GI50 (NCI-H522 lung): 11.9 µM | TGI (NCI-H522 lung): 24.3 µM | GI50 (OVCAR-3 ovarian): 14.5 µM | TGI (OVCAR-3 ovarian): 27.7 µM | GI50 (SF-268 CNS): 16.5 µM | TGI (SF-268 CNS): 30.3 µM | GI50 (SF-539 CNS): 16.7 µM | TGI (SF-539 CNS): 30.4 µM | GI50 (SK-MEL-2 melanoma): 15.8 µM | TGI (SK-MEL-2 melanoma): 29.2 µM | GI50 (SK-MEL-28 melanoma): 16.1 µM | TGI (SK-MEL-28 melanoma): 29.7 µM | GI50 (SK-MEL-5 melanoma): 14.8 µM | TGI (SK-MEL-5 melanoma): 28 µM | GI50 (SK-OV-3 ovarian): 17.5 µM | TGI (SK-OV-3 ovarian): 31.4 µM
